Series [1] deals with T1, human 5-HT7 receptor (Homo sapiens (Human), UniProt P34969). Briefly: Test 1: binding activity for human 5-HT7 receptor ([3H]SB-269970, CHO cell membrane fraction). To be noted: [3H]SB-269970, room temperature 60 minutes. As for the experimental part:
(§1) Ki value was evaluated from dissociation constant which was calculated from saturated binding tests, and a substrate concentration, and it was used as an index for binding affinity.

Series [2] addresses human D2 receptor (Homo sapiens (Human), UniProt P14416). Briefly: Test 1: binding activity for human D2 receptor ([3H]Spiperone, CHO cell membrane fraction). To be noted: [3H]Spiperone, room temperature 60 minutes. As for the experimental part:
as §1

Series [3] has as its target T1, human 5-HT7 receptor. Briefly: Test 2: antagonist activity for human 5-HT7 receptor (aequorin luminescence, CHO-K1 cells). The series is classed as cell-based. As to conditions: Gα16. As for the experimental part: Test 2: Evaluation of Antagonist Activity for Human 5-HT2A Receptor and Human 5-HT7 Receptor
Aequorin, Gα 16 protein, and each receptor were transiently expressed in CHO-K1 cells (Chinese hamster ovary). The cells were cultivated in a CO2 incubator at 37° C. overnight, seeded into a 384-well plate, and stood at room temperature for 2 hours. Each compound dissolved in DMSO was added thereto, and changes in luminescence were measured by FDSS/μCELL drug discovery screening support system (Hamamatsu Photonics K.K.). As for antagonist activity, inhibitory activity of each compound was calculated by setting the luminescence level of wells to which 10 μmol/L endogenous ligand was added as 100%.

The nature of series [4]: Test 3-1: metabolic stability test in human hepatic microsome. The format is in vitro ADME. To be noted: microsome 0.1 mg/mL, test compound 0.1 μmol/L, 37° C., 30 minutes. As for the experimental part: Test 3-1: Metabolic Stability Test in Human Hepatic Microsome
The metabolic stability of the present compound in human hepatic microsome was evaluated as mentioned below. Human hepatic microsome was obtained from Xenontech. Human hepatic microsome, NADPH, and each test compound were mixed in 25 mmol/L phosphate buffer solution (pH 7.4) to reach the following concentrations as shown below, and the mixture was incubated at 37° C. for 30 minutes. • Human hepatic microsome: 0.1 mg/mL • NADPH: 3.2 mmol/L • Test compound: 0.1 μmol/L
The residual ratio of test compound in each sample after 30 minutes was measured by LC-MS, and the metabolic stability in human hepatic microsome was calculated from the following formula. Metabolic stability in human hepatic microsome (mL/min/mg protein)=−LN (residual ratio)/30/0.1

Series [5] addresses hERG channel (Homo sapiens (Human), UniProt Q12809). Briefly: Test 5: inhibitory activity for hERG channel (whole cell patch clamp, hERG-CHO cells). The format is cell-based. To be noted: hERG-CHO cells, auto patch clamp. As for the experimental part:
Test 5: Evaluation of Inhibitory Activity for hERG Channel
Inhibitory activity of the present compound for hERG channel was measured by whole cell patch clamp method with an auto patch clamp system using CHO cells in which hERG channel involved in human rapidly activating delayed rectifier potassium current (IKr) was forcibly expressed.
hERG-CHO cells purchased from ChanTest Cop. were cultured in a CO2 incubator at 37° C., and dissociated from a flask with trypsin shortly before the measurement of hERG current to prepare a cell suspension.
The cell suspension, the extracellular fluid, the intracellular fluid, and the measurement plate were set in an auto patch clamp system, and hERG current was measured by whole cell patch clamp method. […] Each pulse interval was 15 seconds. The data analysis was carried out with Qube Assay Software (Sophion Sophion). The test was carried out by applying incrementally 4 concentrations of each test compound, and the average of the maximum peak tail currents which were obtained from the last 3 stimulations in each concentration was determined as the evaluated data.

Some results are limits rather than exact numbers.

Chain of human D2 receptor (P14416 whole entry): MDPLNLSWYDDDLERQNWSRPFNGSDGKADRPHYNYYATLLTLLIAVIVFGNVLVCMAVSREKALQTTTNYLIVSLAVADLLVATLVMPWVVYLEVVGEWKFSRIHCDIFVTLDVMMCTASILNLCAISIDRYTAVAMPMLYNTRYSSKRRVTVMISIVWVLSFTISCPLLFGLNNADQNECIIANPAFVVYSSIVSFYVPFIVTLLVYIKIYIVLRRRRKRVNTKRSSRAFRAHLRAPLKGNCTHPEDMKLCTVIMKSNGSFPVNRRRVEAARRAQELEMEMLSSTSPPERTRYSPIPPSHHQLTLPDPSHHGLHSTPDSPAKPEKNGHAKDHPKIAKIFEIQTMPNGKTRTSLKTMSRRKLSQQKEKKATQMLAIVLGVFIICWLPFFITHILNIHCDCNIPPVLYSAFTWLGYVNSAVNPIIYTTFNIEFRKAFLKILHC
Chain of hERG channel (Q12809 whole entry): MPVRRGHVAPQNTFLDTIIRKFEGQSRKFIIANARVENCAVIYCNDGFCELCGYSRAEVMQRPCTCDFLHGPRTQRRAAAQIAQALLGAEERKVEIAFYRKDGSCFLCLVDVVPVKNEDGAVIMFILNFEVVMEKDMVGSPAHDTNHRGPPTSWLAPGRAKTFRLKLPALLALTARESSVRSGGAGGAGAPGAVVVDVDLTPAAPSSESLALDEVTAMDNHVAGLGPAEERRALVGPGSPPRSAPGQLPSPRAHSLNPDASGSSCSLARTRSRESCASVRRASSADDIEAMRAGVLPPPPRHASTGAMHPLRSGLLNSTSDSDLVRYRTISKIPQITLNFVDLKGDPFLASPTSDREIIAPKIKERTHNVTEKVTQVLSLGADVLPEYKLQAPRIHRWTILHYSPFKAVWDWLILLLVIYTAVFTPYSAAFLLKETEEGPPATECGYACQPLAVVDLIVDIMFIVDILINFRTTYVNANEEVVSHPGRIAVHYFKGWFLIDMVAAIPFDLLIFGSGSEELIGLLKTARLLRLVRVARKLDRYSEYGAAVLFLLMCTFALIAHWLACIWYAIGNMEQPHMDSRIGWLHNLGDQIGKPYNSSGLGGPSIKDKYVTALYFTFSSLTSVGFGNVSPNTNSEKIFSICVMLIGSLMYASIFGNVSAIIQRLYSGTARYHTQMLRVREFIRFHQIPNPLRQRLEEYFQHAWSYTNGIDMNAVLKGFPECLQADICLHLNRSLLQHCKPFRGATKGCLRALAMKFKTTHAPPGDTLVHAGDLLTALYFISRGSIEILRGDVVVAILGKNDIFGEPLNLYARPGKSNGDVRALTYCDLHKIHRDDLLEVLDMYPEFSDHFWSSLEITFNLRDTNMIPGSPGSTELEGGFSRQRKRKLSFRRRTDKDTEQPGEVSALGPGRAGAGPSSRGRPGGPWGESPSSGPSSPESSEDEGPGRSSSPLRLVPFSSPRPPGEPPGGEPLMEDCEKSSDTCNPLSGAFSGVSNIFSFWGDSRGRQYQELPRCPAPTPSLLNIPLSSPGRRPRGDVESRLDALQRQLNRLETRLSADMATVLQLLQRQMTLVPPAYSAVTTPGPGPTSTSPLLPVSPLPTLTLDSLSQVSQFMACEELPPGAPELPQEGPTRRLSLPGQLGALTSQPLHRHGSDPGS
T1 sequence (P34969 whole entry): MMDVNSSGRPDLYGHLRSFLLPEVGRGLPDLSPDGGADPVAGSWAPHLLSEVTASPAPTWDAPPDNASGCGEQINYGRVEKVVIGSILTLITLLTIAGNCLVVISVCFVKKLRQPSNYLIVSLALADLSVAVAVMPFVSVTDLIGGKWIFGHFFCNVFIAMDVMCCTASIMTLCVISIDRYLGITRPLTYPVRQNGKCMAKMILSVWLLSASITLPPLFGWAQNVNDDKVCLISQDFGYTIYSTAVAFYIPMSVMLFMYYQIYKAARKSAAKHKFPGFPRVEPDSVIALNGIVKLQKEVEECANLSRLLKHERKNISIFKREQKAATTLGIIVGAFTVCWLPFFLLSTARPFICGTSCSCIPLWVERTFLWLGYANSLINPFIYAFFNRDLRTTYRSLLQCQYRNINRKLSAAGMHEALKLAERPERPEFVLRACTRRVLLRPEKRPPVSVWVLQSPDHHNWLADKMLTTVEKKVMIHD

Regarding `CCN(CCN1CCC(c2c[nH]c3cc(F)ccc23)CC1)C(=O)[C@H](C)O` [Example 20, (2S)—N-Ethyl-N-{2-[4-(6-fluoro-1H-indol-3-yl)piperidin-1-yl]ethyl}-2-hydroxypropanamide], the Ki is 1.5 nM in series [1] and 46 nM in series [2]. The compound further showed a 50% inhibitory concentration (IC50) in series [3] of 48 nM. In addition, in series [4], the “Metabolic stability in human hepatic microsome” value (“Metabolic stability” for short) was under 0.05 mL/min/mg protein.
`CCN(CCN1CCC(c2noc3ccc(C)cc23)CC1)S(=O)(=O)CCO` [Example 59]: the Ki in series [1] is 13.6 nM; in series [2], over 1000 nM. Further, the IC50 in series [3] is 62 nM; in series [5], over 10000 nM. The “Metabolic stability” value in series [4] is recorded as 0.079 mL/min/mg protein.
On to `CCN(CCN1CCC(c2c[nH]c3ccccc23)CC1)C(=O)C(C)O` (stereo not drawn) [Example 22, N-Ethyl-2-hydroxy-N-{2-[4-(1H-indol-3-yl)piperidin-1-yl]ethyl}propanamide], for which the Ki worked out at 5.8 nM in series [1] and 528 nM in series [2]. The half-maximal inhibitory concentration (IC50) in series [3] is 40 nM; in series [5] it was over 10000 nM. Moreover, in series [4], the “Metabolic stability” value was under 0.05 mL/min/mg protein.
In the case of `CCN(CCN1CCC(c2noc3cc(F)ccc23)CC1)C(=O)C(F)(F)CO` [Example 36], the inhibition constant (Ki) in series [1] was 1 nM; in series [2], 80 nM. The same compound yielded an IC50 in series [3] of 82 nM. The “Metabolic stability” value in series [4] is under 0.05 mL/min/mg protein.
Consider `CCN(CCN1CCN(c2noc3ccccc23)CC1)C(=O)C(C)O` (stereo not drawn) [Example 26], for which the values for the Ki in series [1] and in series [2] were 22.1 nM and over 10000 nM, respectively. In addition, the IC50 in series [3] is 71 nM; in series [5], over 10000 nM. For the same compound, the “Metabolic stability” value in series [4] is on record as under 0.05 mL/min/mg protein.
For `CCN(CCN1CCC(c2noc3cc(F)ccc23)CC1)C(=O)C1CCC(O)CC1` (stereo not drawn) [Example 9], the Ki in series [1] was 1.6 nM; in series [2] it was under 100 nM. In addition, the half-inhibitory concentration (IC50) in series [3] is 8 nM. The “Metabolic stability” value in series [4] is recorded as under 0.05 mL/min/mg protein.
With `CCN(CCN1CCC(c2noc3cc(F)ccc23)CC1)C(=O)C1CN(C)CC1O` (stereo not drawn) [Example 75, N-Ethyl-N-{2-[4-(6-fluoro-1,2-benzoisoxazol-3-yl)piperidin-1-yl]ethyl}-4-hydroxy-1-methylpyrrolidine-3-carboxamide], the results for the inhibition constant (Ki) in series [1] and in series [2] were 3.6 nM and 124 nM, respectively. Besides, the concentration for half-maximal inhibition (IC50) stood at 80 nM in series [3] and 3800 nM in series [5]. Besides, the “Metabolic stability” value in series [4] is on record as under 0.05 mL/min/mg protein.
For `CCN(CCCN1CCN(c2noc3cc(F)ccc23)CC1)S(=O)(=O)C(C)CO` (stereo not drawn) [Example 55], the inhibition constant Ki in series [1] turned out to be 0.1 nM; in series [2], 78 nM. In addition, the IC50 in series [3] was 3 nM. In series [4], the “Metabolic stability” value came to 0.059 mL/min/mg protein.
For the compound `CCN(CCN1CCC(n2ncc3cc(F)ccc32)CC1)C(=O)[C@H](C)O` [Example 21, (2S)—N-Ethyl-N-{2-[4-(5-fluoro-1H-indazol-1-yl)piperidin-1-yl]ethyl}-2-hydroxypropanamide], the Ki in series [2] was over 1000 nM. Moreover, the “Metabolic stability” value in series [4] was under 0.05 mL/min/mg protein. Moreover, the half-maximal inhibitory concentration (IC50) in series [5] is 15300 nM.
With `CCN(CCN1CCC(c2noc3cc(F)ccc23)CC1)C(=O)[C@H]1CC[C@H](O)CC1` [Example 43], the inhibitory constant (Ki) in series [1] was 4.3 nM; in series [2], under 100 nM. In series [3], this compound displayed an IC50 of 82 nM. Further, in series [4], the “Metabolic stability” value is reported as under 0.05 mL/min/mg protein.
`CCN(CCN1CCC(c2noc3cc(F)ccc23)CC1)C(=O)C1CC(O)C1` (stereo not drawn) [Example 46]: the Ki in series [1] turned out to be 4.2 nM; in series [2] it was 75 nM. Further, the half-inhibitory concentration (IC50) in series [3] came to 83 nM. Moreover, the “Metabolic stability” value in series [4] is reported as under 0.05 mL/min/mg protein.
Regarding `CCN(CCN1CCC(c2noc3cc(F)ccc23)CC1)C(=O)[C@H]1NCC[C@H]1O` [Example 68], the Ki in series [1] turned out to be 48.5 nM; in series [2], 910 nM. The midpoint of inhibition in series [3], the IC50, lay at 91 nM. In series [4], the “Metabolic stability” value was under 0.05 mL/min/mg protein.
In the case of `CCN(CCN1CCC(c2noc3cc(F)ccc23)CC1)C(=O)C1CN(C(C)=O)CC1O` (stereo not drawn) [Example 73], the Ki in series [1] stood at 14.4 nM; in series [2], 205 nM. This compound registered an IC50 in series [3] of 81 nM.
As for `CCN(CCN1CCC(c2noc3cc(Cl)ccc23)CC1)S(=O)(=O)CCO` [Example 60], the Ki in series [1] is 24.3 nM; in series [2], over 1000 nM. Also, inhibition in series [3] was half-maximal at 72 nM (IC50).
In turn, `CCN(CCN1CCC(n2ncc3cc(F)ccc32)CC1)C(=O)[C@@H](C)O` [Example 3, (2R)—N-Ethyl-N-{2-[4-(5-fluoro-1H-indazol-1-yl)piperidin-1-yl]ethyl}-2-hydroxypropanamide] showed a Ki in series [2] of over 1000 nM. Further, the “Metabolic stability” value in series [4] was under 0.05 mL/min/mg protein. The same compound came in with a half-inhibitory concentration (IC50) in series [5] of over 10000 nM.
Regarding `CCN(CCCN1CCC(c2noc3ccccc23)CC1)S(=O)(=O)C(C)CO` (stereo not drawn) [Example 54], the inhibition constant (Ki) in series [1] was determined as 2.6 nM; in series [2] it was 116 nM. The same compound gave a 50% inhibitory concentration (IC50) in series [3] of 1 nM. Further, the “Metabolic stability” value in series [4] was under 0.05 mL/min/mg protein.
Turning to `[2H]C(C)(O)C(=O)N(CC)CCN1CCC(c2noc3cc(F)ccc23)CC1` (stereo not drawn) [Example 40], the “Metabolic stability” value in series [4] is recorded as under 0.05 mL/min/mg protein. This compound registered a concentration for half-maximal inhibition (IC50) in series [5] of 9900 nM.
For `CCN(CCN1CCC(c2noc3cc(F)ccc23)CC1)C(=O)[C@@H](C)O` [Example 1, (2R)—N-Ethyl-N-{2-[4-(6-fluoro-1,2-benzoisoxazol-3-yl)piperidin-1-yl]ethyl}-2-hydroxypropanamide], the “Metabolic stability” value in series [4] is reported as under 0.05 mL/min/mg protein. In addition, the IC50 in series [5] worked out at 4800 nM.
As for `C#CC(O)C(=O)N(CC)CCN1CCC(c2noc3cc(F)ccc23)CC1` (stereo not drawn) [Example 28], the figures for the inhibitory constant (Ki) in series [1] and in series [2] were 10 nM and under 100 nM, respectively. Besides, in series [3], half-maximal inhibition (IC50) required 80 nM.
Regarding `CCN(CCN1CCC(c2noc3cc(F)ccc23)CC1)C(=O)C(C)O` (stereo not drawn) [Example 4], in series [4], the “Metabolic stability” value is given as under 0.05 mL/min/mg protein. In series [5], half-maximal inhibition (IC50) was put at 7100 nM.
As to `CCCN(CCN1CCC(c2noc3cc(F)ccc23)CC1)C(=O)C(C)O` (stereo not drawn) [Example 39], the inhibition constant (Ki) in series [1] is 0.7 nM; in series [2], under 100 nM. Further, in series [3], half-maximal inhibition (IC50) was put at 9 nM. Further, the “Metabolic stability” value in series [4] is on record as under 0.05 mL/min/mg protein.
For `CCN(CCN1CCC(c2noc3cc(Cl)ccc23)CC1)C(=O)[C@H](C)O` [Example 15], the inhibitory constant (Ki) in series [1] is 26.4 nM; in series [2], over 1000 nM. Half-maximal inhibition in series [3] (IC50) was put at 86 nM.
Take `CCN(CCN1CCC(c2noc3cc(F)ccc23)CC1)C(=O)C(O)CN` (stereo not drawn) [Example 65, 3-Amino-N-ethyl-N-{2-[4-(6-fluoro-1,2-benzoisoxazol-3-yl)piperidin-1-yl]ethyl}-2-hydroxypropanamide]: the inhibition constant (Ki) turned out to be 7.6 nM in series [1] and 195 nM in series [2]. This compound showed an IC50 in series [3] of 81 nM. Moreover, the “Metabolic stability” value in series [4] is under 0.05 mL/min/mg protein.
`CCN(CCN1CCC(c2noc3cc(F)ccc23)CC1)C(=O)CO` [Example 12] registered a Ki in series [1] of 6.9 nM. Moreover, the IC50 in series [3] turned out to be 82 nM; in series [5], 2200 nM. Besides, the “Metabolic stability” value in series [4] amounted to 0.089 mL/min/mg protein.
As for `CCN(CCN1CCC(c2noc3ccc(C)cc23)CC1)C(=O)[C@H](C)O` [Example 14], the Ki in series [1] is 14.6 nM; in series [2], over 1000 nM. Also, the figures for the half-maximal inhibitory concentration (IC50) in series [3] and in series [5] were 82 nM and 9600 nM, respectively.
In the case of `CCN(CCN1CCC(c2noc3cc(F)ccc23)CC1)C(=O)[C@H]1CC[C@@H](O)CC1` [Example 44], the Ki was 3.2 nM in series [1] and under 100 nM in series [2]. Moreover, in series [3], the concentration for half-maximal inhibition (IC50) came out at 77 nM. For the same compound, in series [4], the “Metabolic stability” value was under 0.05 mL/min/mg protein.
Turning to `CC(O)C(=O)N(CC#N)CCN1CCC(c2noc3cc(F)ccc23)CC1` (stereo not drawn) [Example 32], the Ki in series [1] was 110 nM; in series [2] it was over 10000 nM. This compound registered a concentration for half-maximal inhibition (IC50) in series [3] of 73 nM.

Source of the values: US11339151B2, “Aliphatic acid amide derivative” (Sumitomo Dainippon Pharma Co., Ltd., priority 2019, dated 2022).
